pIC50: −log10 of the molar value.

One data set deals with ATDC5/FOP-ACVR1 cells. Briefly: ALP assay (HTS and dose-response) in ATDC5/FOP-ACVR1. The data set is classed as cell-based, mouse. As to conditions: Mus musculus, same protocol as HTS (72 h).
Data set [1] concerns FOP-ACVR1 (R206H) conditional transgenic mice. Here is the method:
MTOR s604 […]tt […]at […]
Cardiotoxin-induced HO model in human FOP-ACVR1 conditional transgenic mice. Female hFOP-ACVR1 conditional transgenic mice (Beard et al., 2006; Hino et al., 2017; Ohnishi et al., 2014; Yamada et al., 2013) (f5-6 offspring of chimeric mice, age- and body weight- matched between groups) were used between 16 and 20 weeks of age. Mice were administered 2 mg/mL Dox in their drinking water supplemented with 10 mg / mL sucrose to induce FOP-ACVR1. Cardiotoxin (9.1 µg/mouse, Latoxan) was injected into the right gastrocnemius muscle to initiate skeletal muscle injury and subsequent heterotopic bone formation (Chakkalakal et al., 2012). Test compounds (16% DMSO in 0.5 w/v% Methyl Cellulose 400) were intraperitoneally administered once a day, five times a week. Mice were analyzed three weeks after injection.
For X- ray images, mice were anesthetized with isoflurane (5% for induction, 2-3% for maintenance, Abbvie), immobilized and X-rayed using µFX-1000 (Fujifilm) or DX-50 (Faxitron Bioptics). µCT images were scanned using X-ray CT systems (inspeXio SMX-100CT, Shimadzu) and analyzed with TRI/3D-BON software (Ratoc System Engineering) according to the manufacturer's instructions. Four weeks after injection, the injected sites were harvested, fixed with 4% paraformaldehyde for 24 h, embedded in paraffin, and sectioned and stained with HE, von Kossa, Safranin O and anti-Collagen I antibody as previously described ( Hino et al., 2015; U med a […]
BMP-7-induced HO model mice. […] Mice were analyzed 2 weeks after injection. […]
Histological analysis of growth plates chondrocytes. Knee joints were obtained from BMP-7-injected and test compounds-administrated C57BL/6NJcl mice after 2 weeks treatment and fixed, paraffin-embedded, and sectioned and stained with Safranin O. The thickness of the proliferative and hypertrophic zones of the growth plate were measured using ImageJ software on images obtained using a Keyence microscope (Keyence A merica). […]

For `FC(F)(F)c1ccc(/C=C/c2nc(COc3ccc(CCCCn4ccnn4)cc3)co2)cc1` [TAK 165, mubritinib], in the data set with ATDC5/FOP-ACVR1 cells, the pIC50 was 7.41. Also, in data set [1] (5 mg/kg i.p.), the “body weight change compared with vehicle” value is “No apparent differences” and the “von Kossa or COL1 staining of CTX-injected site” value was “less positive staining”. Further, the “heterotopic ossification (heterotopic bone volume)” value in data set [1] (5 mg/kg i.p. once daily, five times a week, 3 weeks after CTX) is “significantly suppressed”.
